The results in this text go back to ChEMBL document CHEMBL3991601, “The target landscape of clinical kinase drugs” (Science, 2017).

Active and inactive are the calls of the source. Bounds are passed on as bounds.

For test [1], the target named is Eukaryotic peptide chain release factor GTP-binding subunit ERF3B (Homo sapiens, UniProt Q8IYD1).
Test [2] concerns the target T1, Isoleucine--tRNA ligase, mitochondrial (Homo sapiens, UniProt Q9NSE4).
T1 sequence (Q9NSE4 whole entry): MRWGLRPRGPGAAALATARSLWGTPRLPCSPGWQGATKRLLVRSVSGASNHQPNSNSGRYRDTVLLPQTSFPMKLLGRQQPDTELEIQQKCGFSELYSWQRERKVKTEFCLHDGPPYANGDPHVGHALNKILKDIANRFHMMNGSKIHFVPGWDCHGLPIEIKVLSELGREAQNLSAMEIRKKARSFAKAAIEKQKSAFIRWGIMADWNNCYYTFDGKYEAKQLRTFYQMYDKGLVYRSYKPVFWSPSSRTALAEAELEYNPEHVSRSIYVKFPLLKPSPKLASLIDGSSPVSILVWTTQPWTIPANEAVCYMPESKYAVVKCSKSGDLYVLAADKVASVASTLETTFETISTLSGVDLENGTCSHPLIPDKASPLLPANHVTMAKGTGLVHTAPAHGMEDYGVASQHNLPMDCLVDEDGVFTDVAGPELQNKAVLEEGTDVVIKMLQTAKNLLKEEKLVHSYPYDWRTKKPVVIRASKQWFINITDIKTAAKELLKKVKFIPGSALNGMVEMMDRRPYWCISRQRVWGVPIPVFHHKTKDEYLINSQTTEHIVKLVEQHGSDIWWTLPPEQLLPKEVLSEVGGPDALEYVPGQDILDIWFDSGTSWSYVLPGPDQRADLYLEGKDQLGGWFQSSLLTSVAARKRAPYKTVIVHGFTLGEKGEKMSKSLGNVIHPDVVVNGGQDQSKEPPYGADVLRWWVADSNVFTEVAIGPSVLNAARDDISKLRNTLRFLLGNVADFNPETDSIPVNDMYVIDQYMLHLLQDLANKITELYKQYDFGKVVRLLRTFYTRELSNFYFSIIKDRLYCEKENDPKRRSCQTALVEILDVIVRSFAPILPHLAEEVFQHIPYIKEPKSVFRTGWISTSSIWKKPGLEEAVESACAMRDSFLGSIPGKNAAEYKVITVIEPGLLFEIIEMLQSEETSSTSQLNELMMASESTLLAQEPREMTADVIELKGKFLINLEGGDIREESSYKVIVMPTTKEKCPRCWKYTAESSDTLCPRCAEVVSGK

In test [3] the target is ALK tyrosine kinase receptor (Homo sapiens, UniProt Q9UM73). It is filed as subcellular, K-562, COLO 205, SK-N-BE(2) and MV-4-11, Cell lysate. The note with it: read-out: Kd apparent.
For test [4], the target named is T2, Cyclin-dependent kinase-like 5 (Homo sapiens, UniProt O76039).
T2 sequence (O76039 whole entry): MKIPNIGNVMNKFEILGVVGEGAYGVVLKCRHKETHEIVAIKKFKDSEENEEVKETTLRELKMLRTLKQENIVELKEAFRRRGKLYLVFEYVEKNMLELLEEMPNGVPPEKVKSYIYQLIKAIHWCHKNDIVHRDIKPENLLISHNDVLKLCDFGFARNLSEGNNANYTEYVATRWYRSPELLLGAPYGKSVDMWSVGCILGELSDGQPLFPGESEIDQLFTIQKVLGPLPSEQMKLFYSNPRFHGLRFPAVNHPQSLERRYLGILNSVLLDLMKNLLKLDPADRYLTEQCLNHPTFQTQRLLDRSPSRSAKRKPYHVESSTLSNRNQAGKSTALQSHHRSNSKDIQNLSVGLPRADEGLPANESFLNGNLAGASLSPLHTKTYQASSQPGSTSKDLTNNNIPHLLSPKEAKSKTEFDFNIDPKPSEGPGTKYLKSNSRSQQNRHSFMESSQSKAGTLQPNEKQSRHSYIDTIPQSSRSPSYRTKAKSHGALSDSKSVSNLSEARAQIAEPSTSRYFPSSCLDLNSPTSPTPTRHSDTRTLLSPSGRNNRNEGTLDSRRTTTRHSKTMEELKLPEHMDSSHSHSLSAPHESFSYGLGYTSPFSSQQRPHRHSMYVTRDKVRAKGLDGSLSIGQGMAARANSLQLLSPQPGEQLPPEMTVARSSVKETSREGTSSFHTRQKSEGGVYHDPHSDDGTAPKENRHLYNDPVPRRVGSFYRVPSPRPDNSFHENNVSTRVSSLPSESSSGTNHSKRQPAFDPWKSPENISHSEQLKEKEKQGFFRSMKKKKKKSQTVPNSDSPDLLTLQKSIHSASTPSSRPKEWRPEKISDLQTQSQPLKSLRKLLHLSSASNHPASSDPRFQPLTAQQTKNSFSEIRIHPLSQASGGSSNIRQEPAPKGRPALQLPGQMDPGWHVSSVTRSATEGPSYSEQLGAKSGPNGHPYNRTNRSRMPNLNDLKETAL

For test [5], the target named is Serine/threonine-protein kinase 38 (Homo sapiens, UniProt Q15208).
Test [6] concerns the target Serine/threonine-protein kinase 24 (Homo sapiens, UniProt Q9Y6E0).
Test [7] concerns the target Dual specificity protein kinase CLK4 (Homo sapiens, UniProt Q9HAZ1).
In test [8] the target is Cell division cycle 7-related protein kinase (Homo sapiens, UniProt O00311).
Test [9] has as its target MAP kinase-activated protein kinase 3 (Homo sapiens, UniProt Q16644).
In test [10] the target is Nucleoside diphosphate kinase B (Homo sapiens, UniProt P22392).
Test [11] has as its target Cyclin-dependent kinase 10 (Homo sapiens, UniProt Q15131).
The target of test [12] is Tyrosine-protein kinase JAK2 (Homo sapiens, UniProt O60674).
The target in test [13] is Activin receptor type-1-like (Homo sapiens, UniProt P37023).
In test [14] the target is Tyrosine-protein kinase Fgr (Homo sapiens, UniProt P09769).
In test [15] the target is Dual specificity tyrosine-phosphorylation-regulated kinase 1B (Homo sapiens, UniProt Q9Y463).
Further: in the data inactive means no Kd found up to 30 µM.

Sequence of Cyclin-dependent kinase 10 (Q15131 whole entry): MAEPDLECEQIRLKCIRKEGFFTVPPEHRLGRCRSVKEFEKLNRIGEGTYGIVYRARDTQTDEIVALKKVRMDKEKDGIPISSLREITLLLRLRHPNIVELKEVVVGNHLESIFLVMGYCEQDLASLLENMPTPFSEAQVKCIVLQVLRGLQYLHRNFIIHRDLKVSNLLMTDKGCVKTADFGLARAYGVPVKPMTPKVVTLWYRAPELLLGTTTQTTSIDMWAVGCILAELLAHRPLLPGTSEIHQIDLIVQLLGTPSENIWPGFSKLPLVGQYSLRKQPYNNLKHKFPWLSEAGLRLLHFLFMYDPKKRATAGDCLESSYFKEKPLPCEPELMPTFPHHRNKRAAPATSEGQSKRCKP
Sequence of ALK tyrosine kinase receptor (Q9UM73 whole entry): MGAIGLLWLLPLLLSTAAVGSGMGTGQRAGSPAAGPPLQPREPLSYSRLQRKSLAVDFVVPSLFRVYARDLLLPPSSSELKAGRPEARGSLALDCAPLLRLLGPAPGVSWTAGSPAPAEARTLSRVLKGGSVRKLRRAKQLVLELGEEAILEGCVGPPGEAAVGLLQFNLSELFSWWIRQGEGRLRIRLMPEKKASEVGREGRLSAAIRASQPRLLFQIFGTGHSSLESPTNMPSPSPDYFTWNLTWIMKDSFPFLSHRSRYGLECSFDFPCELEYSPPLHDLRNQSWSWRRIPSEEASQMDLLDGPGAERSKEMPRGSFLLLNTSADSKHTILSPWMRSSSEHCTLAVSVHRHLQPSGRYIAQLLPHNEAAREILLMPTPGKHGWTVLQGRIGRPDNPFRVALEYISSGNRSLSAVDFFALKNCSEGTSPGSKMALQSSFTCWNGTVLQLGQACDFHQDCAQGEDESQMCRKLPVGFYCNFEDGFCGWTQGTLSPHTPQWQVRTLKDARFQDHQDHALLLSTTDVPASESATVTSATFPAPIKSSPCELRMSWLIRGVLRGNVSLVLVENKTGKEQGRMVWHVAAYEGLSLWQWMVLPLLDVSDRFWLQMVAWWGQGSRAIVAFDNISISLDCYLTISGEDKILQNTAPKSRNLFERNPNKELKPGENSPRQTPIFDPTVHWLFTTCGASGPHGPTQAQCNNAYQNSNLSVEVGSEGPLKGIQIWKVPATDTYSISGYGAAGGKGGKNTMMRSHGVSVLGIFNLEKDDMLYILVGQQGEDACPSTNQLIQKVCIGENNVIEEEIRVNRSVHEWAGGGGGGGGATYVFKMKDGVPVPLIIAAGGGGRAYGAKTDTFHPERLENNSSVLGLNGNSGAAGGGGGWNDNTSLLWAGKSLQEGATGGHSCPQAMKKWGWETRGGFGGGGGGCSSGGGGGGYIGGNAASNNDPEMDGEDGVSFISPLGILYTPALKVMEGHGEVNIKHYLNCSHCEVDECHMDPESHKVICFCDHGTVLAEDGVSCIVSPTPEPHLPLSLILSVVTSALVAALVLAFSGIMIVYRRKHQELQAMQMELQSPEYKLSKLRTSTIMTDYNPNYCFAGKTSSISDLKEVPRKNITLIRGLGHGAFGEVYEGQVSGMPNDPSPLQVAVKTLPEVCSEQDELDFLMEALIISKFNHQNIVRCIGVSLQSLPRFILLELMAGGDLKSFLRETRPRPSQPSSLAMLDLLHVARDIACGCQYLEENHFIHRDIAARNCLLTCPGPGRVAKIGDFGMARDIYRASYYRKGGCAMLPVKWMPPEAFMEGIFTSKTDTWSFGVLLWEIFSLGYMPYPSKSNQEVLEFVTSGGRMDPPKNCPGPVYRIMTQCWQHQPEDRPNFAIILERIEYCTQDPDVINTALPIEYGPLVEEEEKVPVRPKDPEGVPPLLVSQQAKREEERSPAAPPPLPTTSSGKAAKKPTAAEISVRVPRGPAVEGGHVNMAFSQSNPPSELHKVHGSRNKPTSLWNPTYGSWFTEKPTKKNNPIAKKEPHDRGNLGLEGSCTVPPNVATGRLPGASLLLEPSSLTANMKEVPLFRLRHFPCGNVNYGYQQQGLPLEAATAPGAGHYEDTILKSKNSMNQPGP
Sequence of Serine/threonine-protein kinase 24 (Q9Y6E0 whole entry): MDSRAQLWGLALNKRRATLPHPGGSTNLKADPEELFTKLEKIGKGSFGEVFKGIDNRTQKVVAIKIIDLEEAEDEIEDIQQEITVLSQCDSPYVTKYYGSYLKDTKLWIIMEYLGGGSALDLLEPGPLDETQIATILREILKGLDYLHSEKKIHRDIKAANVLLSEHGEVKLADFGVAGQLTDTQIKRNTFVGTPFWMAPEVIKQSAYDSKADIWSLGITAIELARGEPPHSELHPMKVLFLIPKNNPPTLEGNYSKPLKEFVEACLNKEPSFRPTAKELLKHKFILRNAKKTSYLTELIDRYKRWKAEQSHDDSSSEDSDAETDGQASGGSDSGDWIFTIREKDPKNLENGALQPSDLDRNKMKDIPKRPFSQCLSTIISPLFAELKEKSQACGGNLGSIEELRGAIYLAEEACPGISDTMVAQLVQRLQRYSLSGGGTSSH
Sequence of Activin receptor type-1-like (P37023 whole entry): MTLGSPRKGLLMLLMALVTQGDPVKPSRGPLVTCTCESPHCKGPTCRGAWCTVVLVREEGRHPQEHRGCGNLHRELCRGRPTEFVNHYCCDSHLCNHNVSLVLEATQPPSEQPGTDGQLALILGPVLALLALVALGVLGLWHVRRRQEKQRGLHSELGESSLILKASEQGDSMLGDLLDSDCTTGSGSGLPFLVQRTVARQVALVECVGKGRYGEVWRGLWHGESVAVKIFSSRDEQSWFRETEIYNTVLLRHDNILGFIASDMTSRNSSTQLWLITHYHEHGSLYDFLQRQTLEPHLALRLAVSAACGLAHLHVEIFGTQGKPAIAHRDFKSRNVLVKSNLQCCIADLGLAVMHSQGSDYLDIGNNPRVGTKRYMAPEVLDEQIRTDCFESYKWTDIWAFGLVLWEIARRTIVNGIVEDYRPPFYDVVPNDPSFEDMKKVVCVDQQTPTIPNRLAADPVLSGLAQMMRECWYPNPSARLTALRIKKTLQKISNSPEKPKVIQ
Sequence of Tyrosine-protein kinase Fgr (P09769 whole entry): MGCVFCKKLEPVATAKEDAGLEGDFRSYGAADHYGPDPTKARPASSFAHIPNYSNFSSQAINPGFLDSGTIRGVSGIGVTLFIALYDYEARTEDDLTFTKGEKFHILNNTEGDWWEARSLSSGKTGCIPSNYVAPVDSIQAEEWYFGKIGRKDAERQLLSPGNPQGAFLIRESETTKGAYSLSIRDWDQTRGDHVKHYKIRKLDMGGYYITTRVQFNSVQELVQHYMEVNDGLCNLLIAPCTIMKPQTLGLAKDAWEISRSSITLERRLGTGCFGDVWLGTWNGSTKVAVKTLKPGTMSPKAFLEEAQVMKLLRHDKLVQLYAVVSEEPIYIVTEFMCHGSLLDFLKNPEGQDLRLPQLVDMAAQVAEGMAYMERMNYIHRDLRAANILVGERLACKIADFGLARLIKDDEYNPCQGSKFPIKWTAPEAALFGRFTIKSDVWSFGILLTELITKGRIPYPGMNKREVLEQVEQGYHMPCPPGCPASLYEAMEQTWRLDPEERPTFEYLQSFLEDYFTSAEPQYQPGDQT
Sequence of Tyrosine-protein kinase JAK2 (O60674 whole entry): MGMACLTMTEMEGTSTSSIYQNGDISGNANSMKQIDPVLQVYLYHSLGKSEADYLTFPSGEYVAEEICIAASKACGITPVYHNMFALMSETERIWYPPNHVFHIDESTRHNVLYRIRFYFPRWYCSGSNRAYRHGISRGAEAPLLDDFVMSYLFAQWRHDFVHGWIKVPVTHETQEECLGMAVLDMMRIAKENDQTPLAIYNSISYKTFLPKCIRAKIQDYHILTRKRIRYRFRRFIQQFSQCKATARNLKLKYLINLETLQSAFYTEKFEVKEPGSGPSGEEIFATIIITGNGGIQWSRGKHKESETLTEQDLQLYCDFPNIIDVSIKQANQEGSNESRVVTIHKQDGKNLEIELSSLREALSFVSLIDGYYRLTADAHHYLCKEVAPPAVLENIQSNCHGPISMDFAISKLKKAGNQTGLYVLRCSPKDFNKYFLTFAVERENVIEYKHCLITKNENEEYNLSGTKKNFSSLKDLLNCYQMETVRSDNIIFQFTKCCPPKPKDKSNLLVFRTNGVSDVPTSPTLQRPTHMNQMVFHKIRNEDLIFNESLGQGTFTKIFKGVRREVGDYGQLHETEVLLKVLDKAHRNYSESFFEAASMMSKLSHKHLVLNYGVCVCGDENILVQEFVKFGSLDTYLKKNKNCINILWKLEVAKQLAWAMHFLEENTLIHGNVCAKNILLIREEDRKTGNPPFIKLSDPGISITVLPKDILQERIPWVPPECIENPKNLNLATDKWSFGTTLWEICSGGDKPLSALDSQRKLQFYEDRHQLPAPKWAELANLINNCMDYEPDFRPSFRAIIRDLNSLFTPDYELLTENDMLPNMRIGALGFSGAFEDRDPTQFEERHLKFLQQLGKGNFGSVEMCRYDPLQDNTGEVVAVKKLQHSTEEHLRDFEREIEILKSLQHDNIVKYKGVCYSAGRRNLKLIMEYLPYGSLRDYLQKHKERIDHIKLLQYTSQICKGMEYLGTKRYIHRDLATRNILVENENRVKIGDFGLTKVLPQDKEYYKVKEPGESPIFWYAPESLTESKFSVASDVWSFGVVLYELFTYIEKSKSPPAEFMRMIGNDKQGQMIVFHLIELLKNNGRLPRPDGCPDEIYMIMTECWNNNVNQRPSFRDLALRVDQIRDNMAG
Sequence of Serine/threonine-protein kinase 38 (Q15208 whole entry): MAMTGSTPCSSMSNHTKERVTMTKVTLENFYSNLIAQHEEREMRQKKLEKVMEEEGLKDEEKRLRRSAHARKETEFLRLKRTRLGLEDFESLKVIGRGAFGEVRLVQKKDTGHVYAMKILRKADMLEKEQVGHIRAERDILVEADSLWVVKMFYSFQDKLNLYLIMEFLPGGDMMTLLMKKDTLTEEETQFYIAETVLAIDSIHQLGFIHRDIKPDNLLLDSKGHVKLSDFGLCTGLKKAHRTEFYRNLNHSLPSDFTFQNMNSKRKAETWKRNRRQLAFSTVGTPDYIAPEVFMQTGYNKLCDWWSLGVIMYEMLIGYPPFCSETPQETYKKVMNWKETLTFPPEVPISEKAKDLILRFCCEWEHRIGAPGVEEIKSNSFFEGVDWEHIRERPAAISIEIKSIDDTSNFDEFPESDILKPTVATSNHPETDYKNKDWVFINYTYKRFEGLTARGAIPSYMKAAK

On to `CC(=O)c1cnc2ccc(-c3cc(Cl)c(O)c(Cl)c3)nc2c1N[C@H]1CC[C@H](CN(C)C)CC1`, for which the Kd in test [1], in [2] and in test [3] was > 30 µM (inactive) in each case.
`COCc1c(-c2ccc(NC(=O)Nc3cc(C(F)(F)F)ccc3F)c(F)c2)c2c(N)ncnn2c1CN1CCOCC1`: the Kd in test [4], in test [5], in test [6], in [7], in [8] and in [2] was > 30 µM (inactive) each time. In addition, the Kd in test [3] was > 30 µM (inactive).
For `Nc1ncnc2c1c(-c1cccc(OCc3ccccc3)c1)cn2[C@H]1C[C@@H](CN2CCC2)C1` [AEW-541], the Kd in test [3] and in [9] was > 30 µM (inactive) each time.
With `COc1cc(Nc2ncc3c(n2)-c2ccc(Cl)cc2C(c2c(F)cccc2OC)=NC3)ccc1C(=O)O` [ALISERTIB], the Kd in test [6], in [10] and in test [11] was > 30 µM (inactive) throughout.
Regarding `Cc1csc(-c2nnc(Nc3ccc(Oc4ncccc4-c4ccnc(N)n4)cc3)c3ccccc23)c1` [AMG-900], the Kd in [5], in test [6], in [7], in test [12], in test [2] and in [13] was > 30 µM (inactive) in each case. Besides, in test [9], the Kd is > 30 µM (inactive).
`O=C(Nc1c[nH]nc1-c1nc2cc(CN3CCOCC3)ccc2[nH]1)NC1CC1` [AT-9283]: the Kd in test [4] was > 30 µM (inactive); in [5], > 30 µM (inactive); in test [8], 0.511 µM; in test [11], 0.009 µM; in test [2] it was > 30 µM (inactive); in test [3], > 30 µM (inactive). Moreover, in test [13], the Kd was 0.015 µM (active).
Take `NC(=O)Nc1cc(-c2cccc(F)c2)sc1C(=O)N[C@H]1CCCNC1` [AZD-7762]: the Kd in [7], in test [11] and in [13] was > 30 µM (inactive) throughout.
`Cc1cc(C(=O)NOCCO)c(Nc2ccc(I)cc2F)n(C)c1=O` [AZD-8330]: the Kd in [4], in test [12], in [14] and in [13] was > 30 µM (inactive) each time.
`Cn1cnc2c(F)c(Nc3ccc(Br)cc3F)c(C(=O)NOCCO)cc21` [BINIMETINIB]: the Kd in test [6], in test [7], in [8], in [11], in test [14] and in test [13] was > 30 µM (inactive) throughout. Further, the Kd in test [9] was > 30 µM (inactive).
Regarding `CCn1c(C(=O)N(C2CC2)C2CC2)cc2c3c(ncn3C)c(Nc3cc(C)n(C)n3)nc21` [BMS-911543], the Kd in test [4], in [6], in [7], in test [8], in test [12] and in test [1] was > 30 µM (inactive) each time. The Kd in [2], in test [3], in test [13] and in [9] was > 30 µM (inactive) throughout.
Turning to `COCC(=O)NC/C=C/c1ccc2ncnc(Nc3ccc(Oc4ccc(C)nc4)c(C)c3)c2c1` [CP-724714], the Kd in [4], in test [7], in test [8], in [2], in test [3] and in test [9] was > 30 µM (inactive) in each case.
As to `Cc1cccc(-c2nn3c(c2-c2ccnc4ccc(C(N)=O)cc24)CCC3)n1` [GALUNISERTIB], the Kd in test [6], in test [7], in test [1], in [2], in [15] and in test [3] was > 30 µM (inactive) throughout.
`CCn1cc(-c2ccnc3[nH]c(-c4cccc(CN(C)C)c4)cc23)c(-c2ccc(NC(=O)N(C)C)cc2)n1` [GSK-1070916]: the Kd in test [4], in test [5], in test [7], in test [12], in test [15] and in test [14] was > 30 µM (inactive) each time.
With `CNC(=O)c1nn(C)c2c1C(C)(C)Cc1cnc(Nc3ccc(N4CCN(C)CC4)cc3)nc1-2` [MILCICLIB], the Kd in test [4] was > 30 µM (inactive); in test [6], > 30 µM (inactive); in [7], 0.018 µM (active); in test [8] it was > 30 µM (inactive); in [10] it was > 30 µM (inactive).
Consider `Cn1cc(-c2cnc3ccc4ccc(CS(=O)(=O)NCc5ccccn5)cc4c(=O)c3c2)cn1` [MK-8033], for which the Kd in [7], in test [8], in [12], in [1], in test [2] and in test [15] was > 30 µM (inactive) in each case. The Kd in test [13] is > 30 µM (inactive).
`FC(F)(F)c1ccc(/C=C/c2nc(COc3ccc(CCCCn4ccnn4)cc3)co2)cc1` [MUBRITINIB]: the Kd in test [4], in test [6], in test [7], in test [10] and in test [11] was > 30 µM (inactive) throughout.
With `O=C(Cc1ccc(-c2ccc(OCCN3CCOCC3)cc2)cn1)NCc1ccccc1` [TIRBANIBULIN], the Kd in [5], in test [6], in test [7], in [12], in test [1] and in test [2] was > 30 µM (inactive) in each case. Besides, the Kd in test [15], in [14] and in test [13] was > 30 µM (inactive) each time.
